Data published in ChEMBL document CHEMBL1201862, “PubChem BioAssay data set” (2004).
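Growth conditions: 96-well plates. Treatment: test compound, 48 hours, 5 concentrations. Analysis: linear interpolation between bracketing concentrations; unreached endpoints set to highest concentration. Abbreviation: GI50, concentration required for 50% inhibition of growth.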 Active and inactive are the calls of the source. Rule as the data show it: active = GI50 up to about 1.1 µM and inactive = higher.

What was measured:
Assay in all cases: growth of human tumour cells (NCI), 48 h
786-0 = tested on: 786-0
BT-549 = tested on: BT-549
CCRF-CEM = tested on: CCRF-CEM
HL-60 = tested on: HL-60
HOP-62 = tested on: HOP-62
HT-29 = tested on: HT-29
Hs-578T = tested on: Hs-578T
IGROV-1 = tested on: IGROV-1
M14 = tested on: M14
MCF7 = tested on: MCF7
MDA-MB-435 = tested on: MDA-MB-435
MDA-N = tested on: MDA-N
NCI-H460 = tested on: NCI-H460
RXF 393 = tested on: RXF 393
SF-539 = tested on: SF-539
SK-OV-3 = tested on: SK-OV-3
SNB-75 = tested on: SNB-75
T47D = tested on: T47D
TK-10 = tested on: TK-10
NCI-H226 = tested on: NCI-H226

Measured: GI50

C=C1C(=O)OC2C1CC(O)/C(C)=C\CCC1(C)OC21 (stereo not given)
inactive: 786-0 31 µM | BT-549 23 µM | CCRF-CEM 25.4 µM | HL-60 23.7 µM | HOP-62 20 µM | HT-29 27.5 µM | Hs-578T 23.5 µM | IGROV-1 32.5 µM | M14 23.1 µM | MCF7 28.2 µM | MDA-MB-435 27.2 µM | MDA-N 19.1 µM | NCI-H460 31.8 µM | RXF 393 16.8 µM | SF-539 34.2 µM | SK-OV-3 49.9 µM | SNB-75 39.8 µM | T47D 46.1 µM | TK-10 39.3 µM

Clc1cc2nnn(C3CCCCO3)c2cc1Cl (stereo not given)
inactive: 786-0 > 100 µM | BT-549 41.5 µM | CCRF-CEM > 100 µM | HOP-62 > 100 µM | HT-29 63.1 µM | Hs-578T 35.4 µM | IGROV-1 > 100 µM | M14 > 100 µM | MCF7 > 100 µM | MDA-MB-435 > 100 µM | MDA-N > 100 µM | NCI-H226 23.5 µM | NCI-H460 88.9 µM | RXF 393 > 100 µM | SF-539 > 100 µM | SK-OV-3 > 100 µM | SNB-75 34.4 µM | T47D 30.4 µM | TK-10 > 100 µM

C/C(=N\NC(=O)c1ccc(Cl)cc1)c1nc2cccnc2[nH]1
inactive: 786-0 16 µM | BT-549 22.3 µM | CCRF-CEM 10.4 µM | HL-60 32.7 µM | HOP-62 32.7 µM | HT-29 45.9 µM | Hs-578T 27.3 µM | IGROV-1 15.1 µM | M14 36.2 µM | MCF7 30.2 µM | MDA-MB-435 25.2 µM | MDA-N 30.5 µM | NCI-H460 14.7 µM | RXF 393 18.1 µM | SF-539 18.2 µM | SK-OV-3 20.4 µM | SNB-75 3.26 µM | T47D 22.8 µM | TK-10 15.2 µM

Cn1c2ccccc2c(=O)c2c(O)cc3c(c21)C=CC1(CCCCC1)O3
inactive: 786-0 9.95 µM | BT-549 2.08 µM | CCRF-CEM > 10 µM | HOP-62 > 10 µM | HT-29 3.85 µM | Hs-578T 9.06 µM | IGROV-1 > 10 µM | M14 > 10 µM | MCF7 9.1 µM | MDA-MB-435 > 10 µM | MDA-N > 10 µM | NCI-H226 5.89 µM | NCI-H460 > 10 µM | RXF 393 > 10 µM | SF-539 > 10 µM | SK-OV-3 > 10 µM | SNB-75 > 10 µM | T47D > 10 µM | TK-10 > 10 µM

Cc1nn(-c2ccccc2)c2c1N=C(C(=O)O)CC(c1ccccc1)=N2
inactive: 786-0 > 10 µM | BT-549 > 10 µM | HL-60 > 10 µM | HOP-62 > 10 µM | HT-29 > 10 µM | Hs-578T > 10 µM | IGROV-1 > 10 µM | M14 > 10 µM | MCF7 > 10 µM | MDA-MB-435 > 10 µM | MDA-N > 10 µM | SF-539 > 10 µM | SK-OV-3 > 10 µM | SNB-75 > 10 µM | T47D > 10 µM | TK-10 > 10 µM

Cn1c(=O)n(-c2c3ccccc3c(Cl)c3ccccc23)n(C(C)(C)C)c1=O
inactive: 786-0 48.8 µM | BT-549 > 100 µM | CCRF-CEM > 100 µM | HL-60 > 100 µM | HOP-62 38.4 µM | HT-29 > 100 µM | Hs-578T 41.3 µM | IGROV-1 > 100 µM | M14 > 100 µM | MCF7 > 100 µM | MDA-MB-435 > 100 µM | MDA-N > 100 µM | NCI-H226 44.6 µM | NCI-H460 > 100 µM | SF-539 43.6 µM | SK-OV-3 > 100 µM | SNB-75 12.1 µM | T47D > 100 µM | TK-10 > 100 µM

CS(=O)(=O)Nc1ccc2ccccc2c1
inactive: 786-0 > 100 µM | BT-549 30.4 µM | CCRF-CEM > 100 µM | HL-60 > 100 µM | HOP-62 95.7 µM | HT-29 > 100 µM | Hs-578T > 100 µM | IGROV-1 > 100 µM | M14 > 100 µM | MCF7 > 100 µM | MDA-MB-435 > 100 µM | MDA-N > 100 µM | NCI-H226 79.4 µM | NCI-H460 > 100 µM | SF-539 > 100 µM | SK-OV-3 > 100 µM | SNB-75 > 100 µM | T47D > 100 µM | TK-10 > 100 µM

Oc1[nH]c(NCc2ccc(Cl)cc2)nc2ncnc1-2
inactive: 786-0 > 100 µM | BT-549 > 100 µM | CCRF-CEM > 100 µM | HOP-62 > 100 µM | HT-29 > 100 µM | Hs-578T 44.8 µM | IGROV-1 > 100 µM | M14 > 100 µM | MCF7 87.1 µM | MDA-MB-435 > 100 µM | MDA-N > 100 µM | NCI-H226 > 100 µM | NCI-H460 > 100 µM | RXF 393 > 100 µM | SF-539 > 100 µM | SK-OV-3 > 100 µM | SNB-75 > 100 µM | T47D > 100 µM | TK-10 > 100 µM

O=C1NC(NCc2ccc(F)cc2)=N/C1=C\c1ccccc1Cl
inactive: 786-0 11.2 µM | BT-549 23.7 µM | HL-60 13.4 µM | HOP-62 19.1 µM | HT-29 15 µM | Hs-578T 30.5 µM | IGROV-1 19.2 µM | M14 15.6 µM | MCF7 19.6 µM | MDA-MB-435 17.9 µM | MDA-N 16.8 µM | NCI-H226 18.1 µM | NCI-H460 25 µM | RXF 393 19.6 µM | SF-539 32.1 µM | SK-OV-3 26.3 µM | SNB-75 7.4 µM | T47D 5.41 µM | TK-10 21.5 µM

Cc1[nH]n(-c2ccccc2)c(=O)c1C(N(CCc1ccccc1)C1=NCC(C)S1)(C(F)(F)F)C(F)(F)F (stereo not given)
inactive: 786-0 13.9 µM | BT-549 10.4 µM | CCRF-CEM 19.3 µM | HL-60 7.69 µM | HOP-62 24.3 µM | HT-29 17.8 µM | Hs-578T 20.5 µM | M14 11.6 µM | MCF7 10.7 µM | MDA-MB-435 10.2 µM | MDA-N 8.63 µM | NCI-H226 6.28 µM | NCI-H460 13.9 µM | SF-539 16.7 µM | SK-OV-3 25.4 µM | SNB-75 16.5 µM | T47D 5.19 µM | TK-10 16.3 µM

CCOC(=O)CCC(NC(=O)OCc1ccccc1)C(=O)NNC(=O)OC(C)(C)C (stereo not given)
inactive: 786-0 > 100 µM | BT-549 > 100 µM | CCRF-CEM > 100 µM | HL-60 > 100 µM | HOP-62 > 100 µM | HT-29 > 100 µM | Hs-578T > 100 µM | IGROV-1 > 100 µM | M14 > 100 µM | MCF7 > 100 µM | MDA-MB-435 > 100 µM | MDA-N > 100 µM | NCI-H460 > 100 µM | RXF 393 > 100 µM | SF-539 > 100 µM | SK-OV-3 > 100 µM | SNB-75 > 100 µM | T47D > 100 µM | TK-10 > 100 µM
